# Experimental data published in PMC9254247, “Dual-sensitive antibacterial peptide nanoparticles prevent dental caries” (Theranostics, 2022).
# No end group written: not given here.
# Test system: fresh mice erythrocytes
# Format: cell-based, mouse
# Details: PBS pH 7.4; 30 min; 37 °C
# Description: Peptide and different pH of culture medium prepared. The pH of BHI medium was adjusted by HCl and NaOH. All peptides, including lycosin- I, pHly-1, s-pHly-1 were synthesized on a Rink amide-AM resin using the SPPS
# (9- fluorenyl-methoxycarbonyl solid-phase peptide synthesis) method as reported previously1. Then peptides were cleaved from the resin using TFA/1,2- ethanedithiol/thioanisole/anisole (90/5/3/2 (v/v)), precipitated in cold diethyl ether and the collected precipitate was dried by air -drying . The prepared peptides were purified by reverse phase- HPLC (RP-HPLC) and their molecular weights were determined by MALDI-TOF MS.
# Hemolytic assay. Approximately 4 % (in volume) of the mouse erythrocyte s were prepared by diluting fresh erythrocytes to 25-fold dilution with PBS buffer (pH 7.4).
# The stock peptide solution ([…]) diluted by PBS solution to reach various concentrations (200 μL) was placed in a 1.5 mL sterile microfuge tube, followed by the addition of 200 μ L o f erythrocyte suspension. The mixture was incubated at 37 °C for 30 min. Then, the mixture was centrifuged at 3,500 rpm for 5 min to collect the supernatant. Aliquots (100 μL) of the supernatant were removed to 96-well plates, and the absorbance was detected at 450 nm using a microplate reader (Multiskan Spectrum, BioTek Inc., USA). Untreated erythrocyte suspension in an equal volume of PBS solution and 0.1% Triton X-100 were used as the negative control and positive […]
# Isolation and culture of clinical S.mutans strains. Ethical approval of the study and the written consent/permission forms were obtained from Institutional Review Board (IRB) at Hunan Normal University prior to the study. For each child, written permission form was reviewed and signed by their legal guardians. Plaque -biofilm samples were collected from patients, including 16 Middle-aged and young patients and 4 children (age between 48 and 72 months) diagnosed with severe early childhood caries (S-ECC) in Changsha Stomatological Hospital. […]
substance,measurement,value
LHQHLHQHAIFHAIIHMAHFWIK-NH2 [s-pHly-1 NPs],HC50,423.0 µM
